Experimental data taken from paper PMC11460631, “Inhibition of transient receptor potential vanilloid 3 channels by antimalarial hydroxychloroquine alleviates TRPV3-dependent dermatitis” (The Journal of Biological Chemistry, 2024).

What was measured:
mTRPV1 = target: T1, mTRPV1 (Mus musculus, UniProt Q704Y3); assay: Whole-cell current recordings, mTRPV1; format: cell-based, murine; conditions: 100 μM HCQ; current activated by 5 μM capsaicin
T1 construct: YFP or GFP; expressed in transfected cells; host or cells: HEK293T
T1 sequence (Q704Y3 whole entry): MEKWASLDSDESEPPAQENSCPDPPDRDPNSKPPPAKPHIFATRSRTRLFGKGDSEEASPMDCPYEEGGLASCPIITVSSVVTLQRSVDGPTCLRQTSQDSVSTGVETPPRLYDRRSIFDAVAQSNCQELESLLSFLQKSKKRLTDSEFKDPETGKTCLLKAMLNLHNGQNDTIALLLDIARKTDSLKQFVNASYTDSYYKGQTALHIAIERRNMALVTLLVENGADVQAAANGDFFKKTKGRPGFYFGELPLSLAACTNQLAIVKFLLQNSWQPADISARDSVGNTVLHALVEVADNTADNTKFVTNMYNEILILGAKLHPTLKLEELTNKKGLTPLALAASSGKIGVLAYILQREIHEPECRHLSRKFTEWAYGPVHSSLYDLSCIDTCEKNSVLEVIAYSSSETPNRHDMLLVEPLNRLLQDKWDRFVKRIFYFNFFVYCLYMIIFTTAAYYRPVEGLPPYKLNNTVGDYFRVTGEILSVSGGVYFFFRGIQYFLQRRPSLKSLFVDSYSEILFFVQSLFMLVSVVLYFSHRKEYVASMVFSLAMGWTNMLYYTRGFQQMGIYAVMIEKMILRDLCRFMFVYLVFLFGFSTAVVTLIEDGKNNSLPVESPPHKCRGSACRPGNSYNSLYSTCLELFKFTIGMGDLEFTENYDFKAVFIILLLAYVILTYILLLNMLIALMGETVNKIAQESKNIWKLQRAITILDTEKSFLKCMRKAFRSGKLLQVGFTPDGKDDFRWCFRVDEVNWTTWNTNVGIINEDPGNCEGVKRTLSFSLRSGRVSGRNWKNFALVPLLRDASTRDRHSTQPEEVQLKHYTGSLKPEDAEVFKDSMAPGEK
Description: To elucidate the specificity of HCQ inhibition on TRPV3, we conducted whole-cell current recordings on other known pruritus-related TRP channels, such as hTRPA1, mTRPV1, mTRPV4, and mTRPM8 (Fig. 3, A and F). […] Because of the relatively larger inhibition of HCQ on mTRPM8 current, we tested the concentration dependence of HCQ on mTRPM8 channels.
HEK293T cells are cultured using Dulbecco's modified Eagle's medium containing 10% fetal bovine serum and 1% penicillin-streptomycin in a cell incubator with 5% CO2 at 37 °C. Plasmids of murine TRPV1, TRPV4, TRPM8, and human TRPV3, TRPA1 are labeled with YFP or GFP as indicators for subsequent electrophysiological recordings. Complementary DNA constructs of ion channels were transiently transfected with Lipofectamine 3000 (Invitrogen). And 12 to 18 h after transient transfection, electrophysiological recordings were performed.
Patch-clamp recordings were carried out with a HEKA EPC10 amplifier controlled by PatchMaster software (HEKA; https://www.heka.com/products/products_main.html#soft_pm) ([36]). Patch pipettes were prepared from borosilicate glass and fire-polished to the resistance of 3 to 8 MΩ by P-97 puller for whole-cell recordings. For single-channel recordings, patch pipettes were fire-polished to a higher resistance of 6 to 10 MΩ. […]

[1] = target: T2, TRPV3 F633 alanine mutation (Homo sapiens, UniProt Q8NET8, F633A); assay: Whole-cell recording of TRPV3 F633 alanine mutant; format: cell-based; conditions: 1 mM 2-APB, ± 80 mV
T2 construct: YFP or GFP; expressed in transfected cells; host or cells: HEK293T
T2 sequence (Q8NET8 1-790 F633A): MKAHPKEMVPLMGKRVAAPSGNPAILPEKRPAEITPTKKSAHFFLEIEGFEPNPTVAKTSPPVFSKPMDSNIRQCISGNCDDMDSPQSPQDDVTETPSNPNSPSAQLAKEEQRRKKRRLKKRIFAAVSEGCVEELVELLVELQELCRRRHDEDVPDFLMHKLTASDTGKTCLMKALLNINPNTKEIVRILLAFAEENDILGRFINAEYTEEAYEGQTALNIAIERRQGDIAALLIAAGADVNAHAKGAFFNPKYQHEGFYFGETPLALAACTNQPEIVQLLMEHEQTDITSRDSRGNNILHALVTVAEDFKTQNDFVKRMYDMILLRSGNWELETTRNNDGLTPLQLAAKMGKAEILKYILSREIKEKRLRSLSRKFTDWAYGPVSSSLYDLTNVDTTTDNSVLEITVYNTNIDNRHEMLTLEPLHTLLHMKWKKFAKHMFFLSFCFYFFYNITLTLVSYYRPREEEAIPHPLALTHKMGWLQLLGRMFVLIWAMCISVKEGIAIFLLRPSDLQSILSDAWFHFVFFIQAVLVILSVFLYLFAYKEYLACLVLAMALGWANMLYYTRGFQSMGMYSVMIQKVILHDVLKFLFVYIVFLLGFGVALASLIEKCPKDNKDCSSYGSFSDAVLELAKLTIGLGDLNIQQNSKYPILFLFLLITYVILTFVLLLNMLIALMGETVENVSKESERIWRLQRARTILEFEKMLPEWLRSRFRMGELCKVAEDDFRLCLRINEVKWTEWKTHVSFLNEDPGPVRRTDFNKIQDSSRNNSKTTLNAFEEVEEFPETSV
Source text: As we mentioned above, HCQ may act as a pore blocker of TRPV3. To probe the binding configuration of HCQ to TRPV3, we carried out molecular docking using Rosetta suite (https://rosettacommons.org) ([21]) and validated the docking models with point mutations in TRPV3 (Fig. 4A). […] Furthermore, when we introduced L670A to L591A mutant, we also observed a left shift on the concentration–response curve on this double mutant as compared to L591A mutant (Fig. 4H).
Figure 4 Residues of the pore domain are critical for HCQ inhibition on TRPV3.A, left panel, docking model of HCQ to the pore domain of TRPV3 structure (6uw4). Right panels, top view and side view of the HCQ-binding pocket. B-J, representative whole-cell recording of TRPV3 and mutants in response to 1 mM 2-APB, the mixture of 1 mM 2-APB and concentration gradients of HCQ with the holding potential of ± 80 mV. K, concentration–response curves of HCQ in WT TRPV3 and mutants (n = 3–5 cells). L, quantification of the inhibitory ratio of HCQ (100 μM) on WT, L591A, and N671Q. […]
All data from whole-cell recordings were analyzed in Igor Pro (WaveMetrics). IC50 values were determined by fitting the Hill equation to concentration-response relationships. […]

reduction of mTRPV1 current (mTRPV1): 12.37% ± 5.32%
IC50 [1]: 140 ± 10 nM
Structure (SMILES): CCN(CCO)CCCC(C)Nc1ccnc2cc(Cl)ccc12 (centres unmarked) [HCQ, hydroxychloroquine]
